Data from patent publication US6420367B1, “Pyrimidine derivatives exhibiting antitumor activity” (Shionogo & Co., Ltd., priority 1998, dated 2002).
≈ marks a conversion by molar mass, not a printed value.

Columns and labels:
[1] = test system: DT-R cells (pRRE3-luc-transfected v-ki-ras-transformed NIH3T3 cells); signal derived from Ras oncogene products; test: Inhibitory effect against cellular signaling derived from Ras oncogene products: luciferase reporter, dissociation of DT-R from DT-C activity (MAC); type: cell-based, mouse; details: minimal tested concentration at which luciferase activities of DT-C cells and DT-R cells dissociated
From the text: Test Example 1 Inhibitory Effect Against Cellular Signaling Derived From Ras Oncogene Products
1) Establishment of Cell Lines Used in Assay
Based on the reporter plasmid (pGV-P (Toyo Ink, Japan)), in which luciferase gene was ligated to SV40-derived minimal promoter, we constructed a plasmid designated pRRE3-luc by inserting 3 copies of chemically synthesized oligonucleotides (Sequence: CAGGATATGACTCT, derived from mouse NVL-3 (M. A. Reddy et al.(1992)Mol. Endocrinol., 6, 1051)) into upstream of the promoter. v-ki-ras-transformed NIH3T3 cells (DT cells, provided by Dr. Makoto Noda (Kyoto Univ., School of medicine)) were transfected with this plasmid by liposome-mediated transfection and transfected cell lines stably incorporated and maintained each plasmid were obtained. We named pGV-P and pRRE3-transfected cell line as DT-C and DT-R, respectively and used in the assay described below.
2) Preparation of Samples
i) All the cell lines were cultured in Dulbecco's Modified Essential Medium (DMEM: 10% Fetal Calf Serum(FCS: Hyclone, USA)) including […] kanamycin (Meiji Seika, Japan) in humidified incubator under condition of 5% CO2 at 37° C.
ii) DT-C and DT-R cells were seeded at 2500 cells/well into flat-bottom 96 well multiplate (Sumitomo bakelite) and incubated for 24 hours.
iii) Test compounds were prepared as 1 mg/ml DMSO solution.
iv) The solution of test compounds were added to the culture. Tested compounds are used at the concentration from […] to 0.51 ng/ml with by 3-fold dilution.
v) After 24 hours, the culture supernatant was completely aspirated and […] of cell-lysing solution (PGC-50 (Toyo Ink, Japan)) was added before cells were dried up. In order to the cells were lysed completely, multiwell plates were left at room temperature for 10 to 30 min. The plates were wrapped up and stored at −20° C. till the day of measurement.
3) Measurement of Samples
i) Melt the samples by putting 96 well multiplate at 37° C. and add 90 μl/well 25 mM Tris (pH 7.5).
ii) Transfer 50 μl of the sample (110 μl) to the 96 well microplate for measurement (Microlite 1 (Dynatech)).
iii) Measure the samples by the luminometer, LUMINOUS CT9000D (Dia-Yatron, Japan). We used Pickagene luminescence kit PGL2000 or LT2.0 (Toyo Ink, Japan) as substrates for luminescence measurement (50 μl/well).
4) Judgment of the Results
i) The luciferase activity of DT-C cells and DT-R cells were plotted in the graph where the relative activity and the compound concentration were expressed as Y-axis and X-axis, respectively. We judged by the degree of dissociation between the activities of DT-C cells and DT-R cells as an index.
ii) Concretely, efficacy of the compound was expressed by two values described below.
a) Among the points of concentration tested, the minimal concentration (Minimal Active Concentration: MAC), at which the activities of DT-C cells and DT-R cells dissociated, was shown as an index of efficacy of the compound.

human colon cancer HT29 = test: In vitro cell growth inhibition test, MTT assay; type: cell-based; details: MTT assay 4 days after compound addition
From the text: (§1) Test Example 2 In Vitro Cell Growth Inhibition Test Cells and MTT Assay
(§2) Human squamous lung cancer […], human squamous lung cancer Ma44, human lung adenocarcinoma A549, human colon cancer HT29 and human pancreas cancer PANC-1 were used.

[2] = test system: human lung adenocarcinoma A549; test: In vitro cell growth inhibition test, MTT assay; type: cell-based; details: MTT assay 4 days after compound addition
From the text: as §1, §2

[3] = test system: human pancreas cancer PANC-1; test: In vitro cell growth inhibition test, MTT assay; type: cell-based; details: MTT assay 4 days after compound addition
From the text: as §1, §2

[4] = test system: human squamous lung cancer Ma44; test: In vitro cell growth inhibition test, MTT assay; type: cell-based; details: MTT assay 4 days after compound addition
From the text: as §1, §2

[5] = test system: human squamous lung cancer RERF-RC-AI; test: In vitro cell growth inhibition test, MTT assay; type: cell-based; details: MTT assay 4 days after compound addition
From the text: as §1, §2

IC50, HT29 (human colon cancer HT29) | IC50, A549 [2] | IC50, PANC-1 [3] | IC50, Ma44 [4] | IC50, RERF-LC-AI [5] | SMILES | MAC (Minimal Active Concentration) [1]
0.0061 µg/mL (≈ 0.0134 µM) | 0.0087 µg/mL (≈ 0.0191 µM) | 0.0057 µg/mL (≈ 0.0125 µM) | 0.0065 µg/mL (≈ 0.0143 µM) | 0.0051 µg/mL (≈ 0.0112 µM) | C=CCNC(=Nc1nc(C)ncc1CSc1nnc(-c2ccc([N+](=O)[O-])cc2)o1)NCC [Compound A-181] | 0.0137 µg/mL
0.008 µg/mL (≈ 0.0187 µM) | 0.02 µg/mL (≈ 0.0468 µM) | 0.016 µg/mL (≈ 0.0374 µM) | 0.1 µg/mL (≈ 0.234 µM) | 0.008 µg/mL (≈ 0.0187 µM) | CCNC(=Nc1nc(C)ncc1CSc1nnc(-c2ccc(N)cc2N)o1)NCC [Compound A-76] | 0.0137 µg/mL
0.01 µg/mL (≈ 0.0243 µM) | 0.034 µg/mL (≈ 0.0826 µM) | 0.017 µg/mL (≈ 0.0413 µM) | 0.012 µg/mL (≈ 0.0292 µM) | 0.008 µg/mL (≈ 0.0194 µM) | CCNC(=Nc1nc(C)ncc1CSc1nnc(-c2ccc(C)cc2)o1)NCC [Compound A-74] | 0.123 µg/mL
0.033 µg/mL (≈ 0.0749 µM) | 0.056 µg/mL (≈ 0.127 µM) | 0.028 µg/mL (≈ 0.0636 µM) | 0.049 µg/mL (≈ 0.111 µM) | 0.016 µg/mL (≈ 0.0363 µM) | Cc1ncc(CSc2nnc(-c3ccc(N)cc3)o2)c(N=C(NC(C)C)NC(C)C)n1 [Compound A-166] | 0.123 µg/mL
0.008 µg/mL (≈ 0.0176 µM) | 0.013 µg/mL (≈ 0.0286 µM) | 0.007 µg/mL (≈ 0.0154 µM) | 0.014 µg/mL (≈ 0.0308 µM) | 0.013 µg/mL (≈ 0.0286 µM) | CCCNC(=Nc1nc(CC)ncc1CSc1nnc(-c2ccc(N)cc2)o1)NCCC [Compound A-139] | <0.000508 µg/mL
0.01 µg/mL (≈ 0.0219 µM) | 0.052 µg/mL (≈ 0.114 µM) | 0.017 µg/mL (≈ 0.0372 µM) | 0.016 µg/mL (≈ 0.035 µM) | 0.012 µg/mL (≈ 0.0263 µM) | CCCNC(=Nc1nc(C)ncc1CSc1nnc(-c2ccc([N+](=O)[O-])cc2)o1)NCC [Compound A-135] | 0.0137 µg/mL
0.015 µg/mL (≈ 0.0336 µM) | 0.034 µg/mL (≈ 0.0761 µM) | 0.03 µg/mL (≈ 0.0671 µM) | 0.086 µg/mL (≈ 0.192 µM) | 0.013 µg/mL (≈ 0.0291 µM) | CCNC(=Nc1nc(C)ncc1CSc1nnc(-c2ccc(N)cc2Cl)o1)NCC [Compound A-64] | 0.370 µg/mL
0.027 µg/mL (≈ 0.0576 µM) | 0.041 µg/mL (≈ 0.0875 µM) | 0.025 µg/mL (≈ 0.0533 µM) | 0.05 µg/mL (≈ 0.107 µM) | 0.021 µg/mL (≈ 0.0448 µM) | CCCCNC(=Nc1nc(C)ncc1CSc1nnc(-c2ccc(N)cc2)o1)NCCCC [Compound A-169] | 0.0412 µg/mL
0.032 µg/mL (≈ 0.0723 µM) | 0.051 µg/mL (≈ 0.115 µM) | 0.021 µg/mL (≈ 0.0475 µM) | 0.085 µg/mL (≈ 0.192 µM) | 0.016 µg/mL (≈ 0.0362 µM) | CCNC(=Nc1nc(C)ncc1CSc1nnc(-c2ccc(N)cc2OC)o1)NCC [Compound A-141] | 0.0412 µg/mL

Continued, compound first:

SMILES | IC50, HT29 (human colon cancer HT29) | IC50, A549 [2] | IC50, PANC-1 [3] | IC50, Ma44 [4] | IC50, RERF-LC-AI [5] | MAC (Minimal Active Concentration) [1]
CCNC(=Nc1nc(C)ncc1CSc1nnc(-c2ccccc2N)o1)NC [Compound A-1] | 0.012 µg/mL (≈ 0.0301 µM) | 0.022 µg/mL (≈ 0.0552 µM) | 0.016 µg/mL (≈ 0.0402 µM) | 0.039 µg/mL (≈ 0.0979 µM) | 0.018 µg/mL (≈ 0.0452 µM) | 0.0412 µg/mL
CCNC(=Nc1ncncc1CSc1nnc(-c2ccc(SC)cc2)o1)NCC [Compound A-120] | 0.023 µg/mL (≈ 0.0535 µM) | 1.3 µg/mL (≈ 3.03 µM) | 0.055 µg/mL (≈ 0.128 µM) | 0.1 µg/mL (≈ 0.233 µM) | 0.024 µg/mL (≈ 0.0559 µM) | 0.123 µg/mL
CCCNC(=Nc1ncncc1CSc1nnc(-c2ccc([N+](=O)[O-])cc2)o1)NCC [Compound A-179] | 0.0063 µg/mL (≈ 0.0142 µM) | 0.014 µg/mL (≈ 0.0316 µM) | 0.0018 µg/mL (≈ 0.00407 µM) | 0.0026 µg/mL (≈ 0.00588 µM) | 0.002 µg/mL (≈ 0.00452 µM) | 0.0137 µg/mL
CCNC(=Nc1ncncc1CSc1nnc(-c2ccc([N+](=O)[O-])cc2)o1)NC [Compound A-177] | 0.0037 µg/mL (≈ 0.00893 µM) | 0.0082 µg/mL (≈ 0.0198 µM) | 0.0038 µg/mL (≈ 0.00917 µM) | 0.0043 µg/mL (≈ 0.0104 µM) | 0.002 µg/mL (≈ 0.00483 µM) | 0.0412 µg/mL
CCNC(=Nc1nc(C)ncc1CSc1nnc(-c2ccccc2NC(C)=O)o1)NC [Compound A-2] | 0.015 µg/mL (≈ 0.034 µM) | 0.017 µg/mL (≈ 0.0386 µM) | 0.015 µg/mL (≈ 0.034 µM) | 0.022 µg/mL (≈ 0.0499 µM) | 0.009 µg/mL (≈ 0.0204 µM) | 0.0412 µg/mL
CCNC(=Nc1nc(C)ncc1CSc1nnc(-c2ccc(N)cc2OC)o1)NCC.Cl [Compound A-189] | 0.032 µg/mL | 0.051 µg/mL | 0.021 µg/mL | 0.085 µg/mL | 0.016 µg/mL | 0.0412 µg/mL
CCNC(=Nc1ncncc1CSc1nnc(-c2ccc([N+](=O)[O-])cc2)o1)NCCN [Compound A-122] | 0.089 µg/mL (≈ 0.201 µM) | 2.1 µg/mL (≈ 4.74 µM) | 0.21 µg/mL (≈ 0.474 µM) | 0.3 µg/mL (≈ 0.676 µM) | 0.14 µg/mL (≈ 0.316 µM) | 1.11 µg/mL
CCNC(=Nc1nc(C)ncc1CSc1nnc(-c2ccc([N+](=O)[O-])cc2F)o1)NCC [Compound A-132] | 0.039 µg/mL (≈ 0.0847 µM) | 0.18 µg/mL (≈ 0.391 µM) | 0.081 µg/mL (≈ 0.176 µM) | 0.077 µg/mL (≈ 0.167 µM) | 0.05 µg/mL (≈ 0.109 µM) | 0.123 µg/mL
CCNC(=Nc1ncncc1CSc1nnc(-c2ccc([N+](=O)[O-])cc2)o1)NCC [Compound A-172] | 0.0033 µg/mL (≈ 0.0077 µM) | 0.0075 µg/mL (≈ 0.0175 µM) | 0.0031 µg/mL (≈ 0.00723 µM) | 0.0038 µg/mL (≈ 0.00887 µM) | 0.0015 µg/mL (≈ 0.0035 µM) | 0.0137 µg/mL
CNC(=Nc1ncncc1CSc1nnc(-c2ccc([N+](=O)[O-])cc2)o1)NC [Compound A-173] | 0.006 µg/mL (≈ 0.015 µM) | 0.017 µg/mL (≈ 0.0425 µM) | 0.0072 µg/mL (≈ 0.018 µM) | 0.0072 µg/mL (≈ 0.018 µM) | 0.0037 µg/mL (≈ 0.00924 µM) | 0.123 µg/mL
Cc1ncc(CSc2nnc(-c3ccc([N+](=O)[O-])cc3)o2)c(N=C(NC(C)C)NC(C)C)n1 [Compound A-165] | 0.052 µg/mL (≈ 0.111 µM) | 0.095 µg/mL (≈ 0.202 µM) | 0.05 µg/mL (≈ 0.106 µM) | 0.055 µg/mL (≈ 0.117 µM) | 0.025 µg/mL (≈ 0.0531 µM) | 0.123 µg/mL
CCNC(=Nc1ncncc1CSc1nnc(-c2ccc(F)cc2N)o1)NCC [Compound A-65] | 0.0014 µg/mL (≈ 0.00336 µM) | 0.0028 µg/mL (≈ 0.00672 µM) | 0.0021 µg/mL (≈ 0.00504 µM) | 0.09 µg/mL (≈ 0.216 µM) | 0.0014 µg/mL (≈ 0.00336 µM) | <0.000508 µg/mL
CCNC(=Nc1ncncc1CSc1nnc(-c2ccc(N)cc2)o1)NC [Compound A-176] | 0.006 µg/mL (≈ 0.0156 µM) | 0.012 µg/mL (≈ 0.0312 µM) | 0.0056 µg/mL (≈ 0.0146 µM) | 0.018 µg/mL (≈ 0.0468 µM) | 0.0032 µg/mL (≈ 0.00832 µM) | 0.123 µg/mL
CCCNC(=Nc1nc(CC)ncc1CSc1nnc(-c2ccc([N+](=O)[O-])cc2)o1)NC [Compound A-150] | 0.031 µg/mL (≈ 0.0679 µM) | 0.005 µg/mL (≈ 0.011 µM) | 0.037 µg/mL (≈ 0.081 µM) | 0.14 µg/mL (≈ 0.307 µM) | 0.016 µg/mL (≈ 0.035 µM) | 0.123 µg/mL
